Results reported in the METLIN SMRT retention time set (Domingo-Almenara et al. 2019).

Experiment: gradient 5% acetonitrile 3 min, to 50% in 2 min, to 85% in 15 min, held 3 min, 100 µL/min
Settings: column: Zorbax Extend-C18 2.1 x 50 mm; eluents: water / acetonitrile, 0.1% formic acid
Method in brief: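 Over 3 months, pure standards in mixtures of ~100 molecules were run by HPLC coupled to a quadrupole time-of-flight mass spectrometer in positive and negative ionization mode. The column was a Zorbax Extend-C18 (2.1 × 50 mm, 1.8 μm) at 100 μL/min, eluted with water and acetonitrile each holding 0.1% formic acid, with 40 μL dead and 900 μL dwell volumes. Retention time was determined from adduct peaks chosen by software and checked manually.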

RP-LC retention time [s] | Compound
815 | COc1ccc(NC(=O)Nc2cccn3c(C4CCC4)nnc23)cc1F
748 | Cc1ccc2nc(C(=O)N3CCN(c4ccccc4Cl)CC3)cn2c1
982 | COc1ccc(Cl)cc1NC(=O)N1CCCC(C)(C(=O)NCc2ccc(C)cc2)C1 (stereo not given)
1050 | CCN1C(=O)COc2ccc(-c3csc(NC(=O)C4CCCCC4)n3)cc21
922 | Cc1ccc(C2CCCN2C(=O)Nc2ccc3c(c2)OCCO3)cc1 (stereo not given)
701 | CCc1nnc(NC(=O)Cc2csc(-n3cccc3)n2)s1
853 | CNC(=O)c1cn(CC(C)C)c(=O)c2ccccc12
1200 | Cc1sc(-c2cc(C(F)(F)F)on2)cc1S(=O)(=O)NCCC(C)C
603 | Cc1nc(C)c(-c2nnc(NC(=O)c3ccno3)o2)s1
666 | CC1Cc2cc(S(=O)(=O)CCC(=O)N3CCN(Cc4ccccc4)CC3)ccc2N1C(=O)C1CC1 (stereo not given)
880 | O=C(c1ccc2c(c1)CCCN2S(=O)(=O)c1ccc(Cl)cc1)N1CCOCC1
667 | Cc1noc([C@@H]2CC(F)(F)CN2C(=O)c2cnco2)n1
709 | CN1CCCc2cc(C(CNC(=O)C(=O)NCc3ccc4c(c3)OCO4)N3CCCC3)ccc21 (stereo not given)
963 | COC(=O)C1=CN(c2ccc(F)cc2)c2cc(Br)ccc2S1(=O)=O
718 | CN1CCCc2cc(C(CNC(=O)C(=O)Nc3ccc4c(c3)OCCO4)N3CCCC3)ccc21 (stereo not given)
774 | O=S(=O)(c1ccc(F)cc1)N1CCC(n2cnnc2-c2ccccc2)CC1
782 | O=C(Nc1ccccc1)N1CCC(n2cnc3ccc(Cl)cc3c2=O)CC1
828 | O=C(Nc1ccccc1F)N1CCC(n2cnc3c(Cl)cccc3c2=O)CC1
712 | Cc1ccccc1Cn1cc(-c2ccncc2)cc1C(=O)NCC(C)C
1070 | Cn1cc(-c2nc(C(=O)Nc3ccc(F)cc3F)cs2)c2cccnc21
789 | Cc1ccc(NC(=O)Cn2nc(N3CCOCC3)c3ccccc3c2=O)cc1
923 | O=C(Nc1cccc2ccccc12)c1ccccc1
775 | COCC(=O)Nc1cc2c(cc1N1CCCCC1)n(C)c(=O)c(=O)n2C
615 | CCn1nc(C)c(CNC(=O)Nc2cc(OC)c(OC)c(OC)c2)c1C
794 | CN(C)c1cccc(-c2nc(-c3ccc4c(c3)ncn4CCC(=O)N3CCCC3)no2)c1

RP-LC retention time [s] | Compound
751 | O=C(O)/C=C/C(=O)Nc1cccc2cccnc12
1020 | COc1ccc(-c2noc(C3CC(=O)N(c4ccc(C)c(Cl)c4)C3)n2)cc1OC (stereo not given)
602 | CCCN1CCN(CCCNC(=O)c2c(N3CCCC3=O)c3cc(F)ccc3n2CC)CC1
789 | O=C(NCCCc1ccccc1)c1n[nH]c2c1CN(C(=O)C1CC1)CC2
722 | Cn1cc(CCNC(=O)Nc2ccccc2Br)c2cccnc21
773 | O=C(NCCn1c(=O)n(Cc2ccccc2)c2cccnc21)c1ccc2c(c1)OCO2
769 | O=C(NCCc1csc2nc(-c3cccs3)nn12)c1ccc(Br)o1
758 | O=C(NC1CCCCC1)C1CCCN(c2ncnc3c2oc2ccccc23)C1 (stereo not given)
855 | CS(=O)(=O)c1ccc(-c2cccc(NS(=O)(=O)c3ccc4c(c3)CCCC4)c2)nn1
1000 | CCCC1O[C@@H]2C[C@H]3[C@@H]4CCC5=CC(=O)C=C[C@]5(C)[C@H]4[C@@H](O)C[C@]3(C)[C@]2(C(=O)CO)O1 (stereo not given in full)
1090 | O=C(NCCc1ccco1)C1CCCN(c2nc3ccccc3n(Cc3ccccc3)c2=O)C1 (stereo not given)
828 | Cc1ccc(N2CCC(NC(=O)c3ccc(F)cc3)C2=O)cc1C (stereo not given)
682 | Cc1ccc(Nc2ncnc3nc[nH]c23)cc1Cl
690 | Cc1ccc(NC(=O)Cn2ccc3ccc(-c4nnc(C)o4)cc32)nc1
934 | COC(=O)c1ccccc1NC1=NS(=O)(=O)c2ccccc21
918 | Cc1cccc(N2CCN(C(=O)C3CCN(C(=O)C4Sc5ccccc5NC4=O)CC3)CC2)c1C (stereo not given)
780 | COc1cc2c(cc1CNC(=O)c1cccs1)OCCCO2
555 | CC(C)Cn1c(=O)c(N2CCN(C(=O)c3ccco3)CC2)nc2ccncc21
716 | CCc1nncn1C1CCN(S(=O)(=O)c2ccc(Cl)c(C)c2)CC1
943 | Cc1noc(-c2ccc(-n3ncc(C(=O)NCCC(C)C)c3C)nc2)n1
782 | CCOc1ccc(S(=O)(=O)N2CCC(C(=O)Nc3ccc(C(N)=O)cc3)CC2)cc1C
1220 | Cc1ccc(-c2nsc3c(=O)n(C)c(SCC(=O)N4CCOc5ccc(C)cc54)nc23)cc1
661 | Cn1cc(-c2ccc3nnc(Sc4ccc5ncccc5c4)n3n2)cn1
818 | O=C(NCCCc1ccccc1)C1CCN(c2cnn(Cc3ccccc3)c(=O)c2)CC1

The remaining lines, values behind:

Compound | RP-LC retention time [s]
CCN1C(=O)c2cccnc2Sc2cc(NC(=O)C3(c4ccc(OC)cc4)CC3)ccc21 | 939
CCN1C(=O)COc2ccc(-c3nc(NC(=O)C(C)C)sc3C)cc21 | 909
COc1ccccc1CNC(=O)CN1C(=O)CSc2cccn2-c2ccccc21 | 613
CN(C1CCc2nn(Cc3ccccc3)c(=O)n2CC1)S(C)(=O)=O (stereo not given) | 666
O=C([C@@H]1C[C@H](Oc2cccnc2)CN1C(=O)C1CCCC1)N1CCCC1 | 577
Cn1nc(C(=O)N2CCCC2)c2c1CCN(C(=O)Nc1ccccc1Br)C2 | 737
CCOC(=O)c1nc(N2CCN(c3ccccn3)CC2)c2c(C)noc2n1 | 596
COc1ccc(NS(=O)(=O)c2ccc3c(c2)-c2oncc2CO3)c(OC)c1 | 852
CC(=O)N1CCc2cc(C(=O)N(C)C)ccc21 | 595
CCCCNC(=O)c1ccccc1NC(=O)C1CCN(C(=O)C(C)(C)C)CC1 | 874
CCOCCCNC(=O)C1c2ccccc2C(=O)N(C)C1c1cccs1 (stereo not given) | 722
O=C(Nc1cnc(N2CCCCC2)nc1)c1ccc(Br)o1 | 927
CCN1c2ccc(C)cc2C(=O)NC12CCN(C(=O)c1ccc3c(c1)OCO3)CC2 | 788
CC(Oc1ccc(F)cc1)C(=O)Nc1ccc(-c2nc(-c3ccc(F)cc3)no2)cc1 (stereo not given) | 1290
CCOC(=O)c1c(C)oc2nc(C)nc(NCCCN(C)c3ccccc3)c12 | 701
Cc1noc(-c2cc(=O)n(CC(=O)NCc3ccccc3F)c3ccccc23)n1 | 826
O=S(=O)(Nc1cc(F)cc(F)c1)c1ccc(-c2nnc(C3CC3)o2)o1 | 878
O=C(Cc1nc(-c2ccccc2)n[nH]1)Nc1cccc(Cl)c1 | 800
CCCCN(C)C(=O)CCC1CCCN(c2cc(NCC)ncn2)C1 (stereo not given) | 658
CCn1cc(CN2CCCC(Cn3cc(COC)nn3)C2)c2cc(OC)ccc21 (stereo not given) | 637
Cc1ccc(CC(=O)Nc2cnn(C)c(=O)c2N2CCOCC2)cc1 | 764

Compound | RP-LC retention time [s]
Cc1noc(-c2cccnc2N2CCCN(Cc3ccc(F)cc3)CC2)n1 | 634
Cc1ccc2nc(-c3ccc(N4CCOCC4)cc3)c(Nc3ccc4c(c3)OCCO4)n2c1 | 692
Cc1ccc(-n2nc(C)c3c(=O)n(CC(=O)NCc4ccccc4Cl)ccc32)cc1 | 872
CCc1ccccc1NC(=O)Cc1c(C)n(C)c2nc(-c3ccccc3)nn2c1=O | 865
CCN1C(=O)COc2ccc(-c3noc(-c4ccccc4C)n3)cc21 | 1230
COc1ccc(-c2cn3c(CC(=O)Nc4cc(Cl)ccc4OC)csc3n2)cc1 | 847
CCc1nc(-c2csc(S(=O)(=O)N3CCCC(C(=O)NCc4cc(C)ccc4C)C3)c2)no1 (stereo not given) | 1080
O=S(=O)(c1ccccc1)N1CC(c2nnc(-c3ccncc3)o2)C2(CCOCC2)C1 (stereo not given) | 660
O=C(NCc1ccncc1)c1cc2cc(Cl)ccc2[nH]1 | 618
Cc1ccc(-c2cc(C(N)=O)[nH]n2)cc1C | 690
O=C(Cn1nc(N2CCOCC2)c2ccccc2c1=O)Nc1ccc2c(c1)OCCO2 | 737
Cc1cc(C)n(-c2nc(CC(=O)Nc3ccccc3F)cs2)n1 | 961
COCC(=O)NCC12CCC=C1N(C)C(=O)CC2 (stereo not given) | 618
Cc1ccc(-n2ccc(=O)c(-c3nc(-c4cccc(Br)c4)no3)n2)cc1 | 1030
Cc1noc(-c2ccnc(-n3ncc(C(=O)NC4CCCCC4)c3C)c2)n1 | 892
COc1cccc(Cn2nnc(C(=O)O)c2C(C)C)c1 | 694
CCCCCOC(=O)CSc1nnc(-c2ccc(Cl)cc2Cl)o1 | 1320
O=C(Nc1cccc(Br)c1)N1CCc2nc(-c3ccc(F)cc3)ncc2C1 | 1060
CS(=O)(=O)N1CC(n2cc(C(=O)N3CCOCC3)nn2)C1 | 573
COc1ccc(NC(=O)Cc2csc3nc(-c4cccc(Br)c4)cn23)cc1 | 937
